Laboratory results as given in ChEMBL document CHEMBL1201862, “PubChem BioAssay data set” (2004).
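Dose response: 5 concentrations. Exposure: 48 h. Format: 96-well plates. Endpoint: linear interpolation; highest concentration if not reached. GI50 is the concentration that inhibits growth by half.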 Calls of active or inactive are those of the source. No stated cut-off is given here; in the data, active = GI50 up to about 1.1 µM and inactive = higher.

How the values were obtained:
Assay in all cases: NCI tumour cell line growth inhibition, 48 h
HCC 2998 = tested on: HCC 2998
SK-MEL-5 = tested on: SK-MEL-5
SK-OV-3 = tested on: SK-OV-3
UACC-257 = tested on: UACC-257
NCI-H226 = tested on: NCI-H226
SNB-19 = tested on: SNB-19
MDA-MB-231 = tested on: MDA-MB-231
Hs-578T = tested on: Hs-578T
SR = tested on: SR
SF-539 = tested on: SF-539
SK-MEL-28 = tested on: SK-MEL-28
OVCAR-4 = tested on: OVCAR-4
UO-31 = tested on: UO-31
RPMI-8226 = tested on: RPMI-8226
HCT-116 = tested on: HCT-116
HOP-92 = tested on: HOP-92
U-251 = tested on: U-251
ACHN = tested on: ACHN
CCRF-CEM = tested on: CCRF-CEM
PC-3 = tested on: PC-3
OVCAR-5 = tested on: OVCAR-5
SF-268 = tested on: SF-268
SW-620 = tested on: SW-620
KM12 = tested on: KM12
SF-295 = tested on: SF-295
SK-MEL-2 = tested on: SK-MEL-2
HOP-62 = tested on: HOP-62
IGROV-1 = tested on: IGROV-1
RXF 393 = tested on: RXF 393
K562 = tested on: K562
DU-145 = tested on: DU-145
HL-60 = tested on: HL-60
TK-10 = tested on: TK-10
HCT-15 = tested on: HCT-15
M14 = tested on: M14
786-0 = tested on: 786-0
MDA-MB-435 = tested on: MDA-MB-435
SN12C = tested on: SN12C
CAKI-1 = tested on: CAKI-1
UACC-62 = tested on: UACC-62
T47D = tested on: T47D
MCF7 = tested on: MCF7
HT-29 = tested on: HT-29
MOLT-4 = tested on: MOLT-4
NCI-H460 = tested on: NCI-H460
COLO 205 = tested on: COLO 205
EKVX = tested on: EKVX
A549 = tested on: A549
LOX IMVI = tested on: LOX IMVI
SNB-75 = tested on: SNB-75
BT-549 = tested on: BT-549
OVCAR-8 = tested on: OVCAR-8
Malme-3M = tested on: Malme-3M
NCI/ADR-RES = tested on: NCI/ADR-RES
NCI-H23 = tested on: NCI-H23
NCI-H522 = tested on: NCI-H522
A498 = tested on: A498
MDA-N = tested on: MDA-N
OVCAR-3 = tested on: OVCAR-3

Measured: GI50

COc1ccc(-c2nc(-c3cc4c(ccc5ccccc54)oc3=O)cs2)cc1
inactive: HCC 2998 > 100 µM | SK-MEL-5 > 100 µM | SK-OV-3 > 100 µM | UACC-257 > 100 µM | NCI-H226 31 µM | SNB-19 > 100 µM | MDA-MB-231 73.6 µM | Hs-578T > 100 µM | SR > 100 µM | SF-539 > 100 µM | SK-MEL-28 > 100 µM | OVCAR-4 43.7 µM | UO-31 > 100 µM | RPMI-8226 > 100 µM | HCT-116 59.8 µM | HOP-92 > 100 µM | U-251 > 10 µM | ACHN > 100 µM | CCRF-CEM > 100 µM | PC-3 > 100 µM | OVCAR-5 > 100 µM | SF-268 > 100 µM | SW-620 > 100 µM | KM12 > 100 µM | SF-295 > 100 µM | SK-MEL-2 > 100 µM | HOP-62 73.3 µM | IGROV-1 > 100 µM | RXF 393 > 100 µM | K562 > 100 µM | DU-145 > 100 µM | HL-60 > 100 µM | TK-10 > 100 µM | M14 > 100 µM | 786-0 33.2 µM | MDA-MB-435 > 100 µM | SN12C > 100 µM | CAKI-1 > 100 µM | UACC-62 > 100 µM | T47D > 100 µM | MCF7 > 100 µM | HT-29 > 100 µM | MOLT-4 > 100 µM | NCI-H460 > 100 µM | COLO 205 > 100 µM | EKVX > 100 µM | A549 > 100 µM | LOX IMVI > 100 µM | SNB-75 66.5 µM | BT-549 > 100 µM
> 100 µM: HCT-15

COc1cc(/C=C2\C(=O)N(c3cc(Cl)ccc3Cl)C(c3ccccc3)S2(=O)=O)cc(OC)c1OC (configuration not stated)
inactive: HCC 2998 > 100 µM | SK-MEL-5 57.4 µM | SK-OV-3 > 100 µM | OVCAR-8 > 100 µM | Malme-3M 42.9 µM | UACC-257 > 100 µM | NCI-H226 25.4 µM | NCI/ADR-RES 34.1 µM | SNB-19 > 100 µM | MDA-MB-231 > 100 µM | NCI-H23 96.4 µM | SR 31.6 µM | SF-539 90.6 µM | SK-MEL-28 63.8 µM | OVCAR-4 62.1 µM | UO-31 46.8 µM | RPMI-8226 45.4 µM | HCT-116 38.5 µM | HOP-92 45.1 µM | U-251 86.1 µM | ACHN > 100 µM | CCRF-CEM 42.9 µM | PC-3 55.8 µM | OVCAR-5 38.5 µM | SW-620 33.7 µM | KM12 36.6 µM | SF-295 51.5 µM | NCI-H522 29.5 µM | SK-MEL-2 > 100 µM | HOP-62 > 100 µM | IGROV-1 28.3 µM | RXF 393 > 100 µM | K562 31 µM | DU-145 > 100 µM | HL-60 19.2 µM | TK-10 > 100 µM | M14 40.6 µM | 786-0 > 100 µM | MDA-MB-435 27.7 µM | SN12C 62.1 µM | CAKI-1 > 100 µM | UACC-62 37.2 µM | T47D 26.1 µM | MCF7 27 µM | HT-29 81.5 µM | MOLT-4 25.1 µM | NCI-H460 > 100 µM | COLO 205 > 100 µM | A498 > 100 µM | EKVX 29.3 µM | A549 > 100 µM | LOX IMVI 55.6 µM | MDA-N 22.2 µM | OVCAR-3 34.8 µM | SNB-75 61.1 µM | BT-549 83.2 µM
39.4 µM: HCT-15

O=C(Nc1ccccc1C(=O)O)C(=Cc1ccccc1O)NC(=O)c1ccccc1
> 100 µM: HCT-15
inactive: HCC 2998 > 100 µM | SK-MEL-5 > 100 µM | SK-OV-3 > 100 µM | OVCAR-8 > 100 µM | Malme-3M > 100 µM | UACC-257 > 100 µM | NCI-H226 61.2 µM | NCI/ADR-RES > 100 µM | SNB-19 > 100 µM | MDA-MB-231 > 100 µM | NCI-H23 > 100 µM | Hs-578T > 100 µM | SR > 100 µM | SF-539 58.6 µM | SK-MEL-28 > 100 µM | UO-31 > 100 µM | RPMI-8226 > 100 µM | HCT-116 > 100 µM | HOP-92 > 100 µM | U-251 > 100 µM | ACHN > 100 µM | CCRF-CEM > 100 µM | PC-3 > 100 µM | OVCAR-5 > 100 µM | SF-268 > 100 µM | SW-620 > 100 µM | KM12 > 100 µM | SF-295 > 100 µM | NCI-H522 > 100 µM | SK-MEL-2 > 100 µM | HOP-62 > 100 µM | IGROV-1 > 100 µM | RXF 393 > 100 µM | K562 > 100 µM | DU-145 > 100 µM | HL-60 > 100 µM | M14 > 100 µM | 786-0 > 100 µM | MDA-MB-435 32.4 µM | SN12C > 100 µM | CAKI-1 > 100 µM | UACC-62 > 100 µM | T47D 49.1 µM | MCF7 9.27 µM | HT-29 > 100 µM | MOLT-4 > 100 µM | NCI-H460 > 100 µM | COLO 205 > 100 µM | A498 > 100 µM | EKVX > 100 µM | A549 > 100 µM | LOX IMVI 58.9 µM | OVCAR-3 > 100 µM | SNB-75 > 100 µM | BT-549 > 100 µM

COC(=O)/C=C1/OC(c2ccccc2)=C(Br)C1=O
10.6 µM: HCT-15
inactive: HCC 2998 56.8 µM | SK-MEL-5 20.3 µM | SK-OV-3 > 100 µM | OVCAR-8 29.9 µM | Malme-3M 49 µM | UACC-257 73.3 µM | NCI-H226 68.9 µM | SNB-19 79.1 µM | MDA-MB-231 8.07 µM | NCI-H23 57.5 µM | SR 20.8 µM | SF-539 45.9 µM | SK-MEL-28 64.1 µM | OVCAR-4 55.7 µM | UO-31 40 µM | RPMI-8226 31.4 µM | HCT-116 17.9 µM | HOP-92 64.4 µM | U-251 23.2 µM | ACHN 46.8 µM | CCRF-CEM 25.8 µM | PC-3 18.9 µM | OVCAR-5 > 100 µM | SF-268 49.4 µM | SW-620 18.4 µM | KM12 55.5 µM | NCI-H522 25.1 µM | HOP-62 > 100 µM | IGROV-1 > 10 µM | RXF 393 48.2 µM | K562 21.7 µM | DU-145 87.1 µM | HL-60 35.2 µM | TK-10 80.5 µM | M14 44.7 µM | 786-0 25 µM | MDA-MB-435 38 µM | SN12C 37.1 µM | CAKI-1 24.8 µM | UACC-62 20 µM | T47D 45.3 µM | MCF7 34.3 µM | HT-29 20.1 µM | MOLT-4 28.5 µM | NCI-H460 35.9 µM | COLO 205 > 100 µM | A498 70.8 µM | EKVX > 100 µM | LOX IMVI 24.3 µM | MDA-N 42.1 µM | OVCAR-3 > 100 µM | SNB-75 45 µM | BT-549 18.7 µM

CC1=C[P+](c2ccccc2)(c2ccccc2)c2ccccc2O1
active: K562 0.524 µM | T47D 0.597 µM
> 100 µM: HCT-15
inactive: SK-MEL-5 2.81 µM | SK-OV-3 25 µM | OVCAR-8 5.14 µM | Malme-3M 4.71 µM | UACC-257 2.79 µM | NCI-H226 15.2 µM | NCI/ADR-RES > 100 µM | SNB-19 7.11 µM | MDA-MB-231 3.96 µM | NCI-H23 4.07 µM | Hs-578T 2.53 µM | SR 1.56 µM | SF-539 7.89 µM | SK-MEL-28 7.01 µM | OVCAR-4 3.42 µM | UO-31 > 100 µM | HCT-116 3.71 µM | HOP-92 3.73 µM | U-251 3.65 µM | ACHN 30.6 µM | PC-3 3.32 µM | OVCAR-5 17.4 µM | SF-268 16.6 µM | SW-620 5.86 µM | KM12 2.07 µM | SF-295 13 µM | NCI-H522 3.25 µM | SK-MEL-2 4.17 µM | HOP-62 11.6 µM | IGROV-1 5.28 µM | RXF 393 > 100 µM | DU-145 19.2 µM | HL-60 2.06 µM | TK-10 14 µM | M14 3.39 µM | 786-0 25.2 µM | MDA-MB-435 2.47 µM | SN12C 1.32 µM | CAKI-1 23.5 µM | UACC-62 8 µM | MCF7 5.05 µM | HT-29 2.91 µM | MOLT-4 2.15 µM | NCI-H460 20.5 µM | COLO 205 1.29 µM | EKVX 16.7 µM | A549 13.6 µM | LOX IMVI 4.45 µM | OVCAR-3 1.14 µM | SNB-75 11.4 µM | BT-549 10 µM
